One may read the inhibition as the relative decrease from the control value, in per cent.

The values below come from ChEMBL document CHEMBL2021812, “Aryltriflates as a Neglected Moiety in Medicinal Chemistry: A Case Study from a Lead Optimization of CXCL8 Inhibitors” (ACS Med Chem Lett, 2011).

For data set [1], the target named is T1, C-X-C chemokine receptor type 2 (Homo sapiens) (UniProt P25025).
T1 sequence (whole entry): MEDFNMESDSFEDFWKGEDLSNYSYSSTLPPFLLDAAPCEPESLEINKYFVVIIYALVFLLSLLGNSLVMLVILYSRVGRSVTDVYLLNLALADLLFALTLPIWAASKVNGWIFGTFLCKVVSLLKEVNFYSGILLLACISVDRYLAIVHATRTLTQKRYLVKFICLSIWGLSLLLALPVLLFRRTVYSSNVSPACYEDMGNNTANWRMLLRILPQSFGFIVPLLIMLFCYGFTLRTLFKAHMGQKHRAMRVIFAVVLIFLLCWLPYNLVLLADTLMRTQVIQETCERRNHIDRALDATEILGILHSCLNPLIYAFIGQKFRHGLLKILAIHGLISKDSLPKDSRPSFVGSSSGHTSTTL
Description: Inhibition of CXCR2 in human polymorphonucleate cells assessed as inhibition of CXCL1-induced chemotaxis at 10^-8 M incubated for 15 mins prior to CXCL1-induction measured after 45 mins.

In data set [2] the target is Interleukin-8 receptors, CXCR1/CXCR2 (Homo sapiens) (UniProt P25025+P25024). The experiment in a line: Inhibition of CXCR1/2 in human polymorphonucleate cells assessed as inhibition of CXCL8-induced chemotaxis at 10^-8 M incubated for 15 mins prior to CXCL8-induction measured after 45 mins.
Chain of Interleukin-8 receptors, CXCR1/CXCR2 (Homo sapiens) (P25024 whole entry, looked up, one chain of several): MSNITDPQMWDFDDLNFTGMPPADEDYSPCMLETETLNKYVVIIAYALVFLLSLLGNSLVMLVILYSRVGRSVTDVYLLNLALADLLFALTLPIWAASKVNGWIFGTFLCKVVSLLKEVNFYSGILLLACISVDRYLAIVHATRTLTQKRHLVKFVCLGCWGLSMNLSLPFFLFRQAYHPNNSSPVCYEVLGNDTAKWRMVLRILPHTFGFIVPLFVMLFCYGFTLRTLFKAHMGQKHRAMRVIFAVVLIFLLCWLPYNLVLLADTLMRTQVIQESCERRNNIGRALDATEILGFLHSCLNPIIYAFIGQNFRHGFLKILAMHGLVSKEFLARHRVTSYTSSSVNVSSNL
Data set [3] has as its target CYP2C9 (Homo sapiens, UniProt P11712). Description: Inhibition of CYP2C9 using 7MFC as substrate at 10 uM. In kind it is ADME. Particulars: probe 7MFC.
In data set [4] the target is T2, CYP1A2 (Homo sapiens, UniProt P05177).
T2 sequence (P05177 whole entry): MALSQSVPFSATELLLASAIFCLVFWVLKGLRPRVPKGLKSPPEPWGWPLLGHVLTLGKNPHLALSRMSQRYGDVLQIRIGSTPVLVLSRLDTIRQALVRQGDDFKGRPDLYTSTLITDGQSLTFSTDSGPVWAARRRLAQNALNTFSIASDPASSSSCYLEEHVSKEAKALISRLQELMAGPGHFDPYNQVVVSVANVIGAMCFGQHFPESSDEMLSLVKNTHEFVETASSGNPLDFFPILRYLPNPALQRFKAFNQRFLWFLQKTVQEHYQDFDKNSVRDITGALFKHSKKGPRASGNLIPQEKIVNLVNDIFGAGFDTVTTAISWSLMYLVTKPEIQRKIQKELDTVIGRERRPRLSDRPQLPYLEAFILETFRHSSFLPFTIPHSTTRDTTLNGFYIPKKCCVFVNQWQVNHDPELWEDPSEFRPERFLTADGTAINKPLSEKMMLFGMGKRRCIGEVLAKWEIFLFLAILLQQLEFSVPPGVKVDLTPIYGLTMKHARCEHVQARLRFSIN
The experiment in a line: Inhibition of CYP1A2 using CEC as substrate at 10 uM. Particulars: probe CEC. In kind it is ADME.

The target in data set [5] is CYP2D6 (Homo sapiens, UniProt P10635). Description: Inhibition of CYP2D6 using AMMC as substrate at 10 uM. In kind it is ADME. Particulars: probe AMMC.
Chain of CYP2D6 (P10635 whole entry): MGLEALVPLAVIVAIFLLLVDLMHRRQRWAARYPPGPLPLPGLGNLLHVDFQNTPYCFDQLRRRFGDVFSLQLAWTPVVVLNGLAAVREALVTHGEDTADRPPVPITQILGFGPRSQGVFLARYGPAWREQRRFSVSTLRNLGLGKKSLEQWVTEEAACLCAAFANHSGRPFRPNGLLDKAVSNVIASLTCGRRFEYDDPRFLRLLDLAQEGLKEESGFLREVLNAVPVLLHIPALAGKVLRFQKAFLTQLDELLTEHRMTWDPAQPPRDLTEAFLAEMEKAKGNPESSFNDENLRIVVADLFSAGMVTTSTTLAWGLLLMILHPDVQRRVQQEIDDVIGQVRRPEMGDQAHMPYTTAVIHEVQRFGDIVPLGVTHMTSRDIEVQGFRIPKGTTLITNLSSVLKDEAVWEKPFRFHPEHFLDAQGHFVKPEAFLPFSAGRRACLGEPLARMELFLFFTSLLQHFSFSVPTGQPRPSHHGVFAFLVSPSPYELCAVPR
Data set [6] addresses CYP2C19 (Homo sapiens, UniProt P33261). The experiment in a line: Inhibition of CYP2C19 using DBF as substrate at 10 uM. Particulars: probe DBF. It is filed as ADME.
The target of data set [7] is CYP3A4 (Homo sapiens, UniProt P08684). Description: Inhibition of CYP3A4 using BFC as substrate at 10 uM. It is filed as ADME. Particulars: probe BFC.
Chain of CYP3A4 (P08684 whole entry): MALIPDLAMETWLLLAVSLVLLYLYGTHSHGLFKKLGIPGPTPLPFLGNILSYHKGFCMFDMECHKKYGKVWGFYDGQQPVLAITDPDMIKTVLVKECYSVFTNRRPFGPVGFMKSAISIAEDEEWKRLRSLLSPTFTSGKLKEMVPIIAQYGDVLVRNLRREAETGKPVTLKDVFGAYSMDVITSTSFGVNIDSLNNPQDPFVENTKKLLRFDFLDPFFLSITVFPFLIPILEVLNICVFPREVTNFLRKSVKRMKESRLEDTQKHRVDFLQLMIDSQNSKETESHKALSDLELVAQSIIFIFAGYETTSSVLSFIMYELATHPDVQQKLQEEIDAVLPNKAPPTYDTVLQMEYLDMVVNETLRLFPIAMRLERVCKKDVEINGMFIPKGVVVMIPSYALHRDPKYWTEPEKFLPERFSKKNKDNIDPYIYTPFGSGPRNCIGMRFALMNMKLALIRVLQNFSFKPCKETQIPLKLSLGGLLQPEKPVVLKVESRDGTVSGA
Data set [8] in a line: Metabolic stability in rat liver microsomes assessed as compound remaining at 1 uM preincubated for 10 mins measured after 30 mins. It is filed as ADME, Microsome. The following applies: read-out: Stability.
A short description of data set [9]: Elimination half life in Sprague-Dawley rat at 14 mg/kg, iv. Further details: dose 14 mg/kg, route intravenous. Particulars: in vivo, read-out: beta t1/2 (converted). In kind it is ADME, organism-based.
Data set [10] can be described thus: Metabolic stability in rat plasma assessed as compound remaining at 1 uM after 1 hr. The following applies: read-out: Stability. It is filed as ADME, cell-free.
A short description of data set [11]: Chemical stability of the compound assessed as compound remaining at pH 7.4 after 2 hrs. The following applies: buffer, read-out: Stability. It is filed as physicochemical.
The nature of data set [12]: Half life in iv dosed rat plasma. In kind it is ADME, organism-based.

Activity calls are given as the source filed them. No cut-off for these calls is given here.

Chain of CYP2C9 (P11712 whole entry): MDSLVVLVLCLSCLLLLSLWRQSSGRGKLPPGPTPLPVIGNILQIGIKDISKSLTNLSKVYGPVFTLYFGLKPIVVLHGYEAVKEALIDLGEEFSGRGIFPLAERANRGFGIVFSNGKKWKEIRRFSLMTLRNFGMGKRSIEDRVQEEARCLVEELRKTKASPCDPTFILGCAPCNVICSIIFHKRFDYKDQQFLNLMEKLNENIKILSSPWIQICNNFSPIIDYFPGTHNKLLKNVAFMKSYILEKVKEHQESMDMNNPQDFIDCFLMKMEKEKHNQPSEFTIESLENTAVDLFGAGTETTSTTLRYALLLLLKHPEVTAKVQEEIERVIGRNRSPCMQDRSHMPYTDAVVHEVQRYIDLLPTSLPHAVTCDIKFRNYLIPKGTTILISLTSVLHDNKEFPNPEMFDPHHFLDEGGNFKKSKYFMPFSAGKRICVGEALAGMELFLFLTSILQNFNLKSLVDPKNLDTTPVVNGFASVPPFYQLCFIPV
Chain of CYP2C19 (P33261 whole entry): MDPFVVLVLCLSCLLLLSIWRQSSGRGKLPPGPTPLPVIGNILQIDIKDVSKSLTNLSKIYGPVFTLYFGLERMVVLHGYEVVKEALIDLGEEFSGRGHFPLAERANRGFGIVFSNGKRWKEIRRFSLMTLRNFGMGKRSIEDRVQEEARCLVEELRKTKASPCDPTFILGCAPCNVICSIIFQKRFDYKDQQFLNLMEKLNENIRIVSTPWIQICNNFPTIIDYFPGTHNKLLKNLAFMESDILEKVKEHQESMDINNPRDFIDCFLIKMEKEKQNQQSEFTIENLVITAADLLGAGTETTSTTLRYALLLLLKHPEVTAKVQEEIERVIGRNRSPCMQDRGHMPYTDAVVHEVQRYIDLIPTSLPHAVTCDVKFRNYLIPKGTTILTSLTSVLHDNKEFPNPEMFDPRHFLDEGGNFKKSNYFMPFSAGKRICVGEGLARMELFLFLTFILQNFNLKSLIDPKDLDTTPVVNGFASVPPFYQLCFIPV

`C[C@@H](C(=O)NOCC1CC1)c1ccc(OS(=O)(=O)C(F)(F)F)cc1`: the values for the inhibition in [1] and in [2] were 35% and 40%, respectively.
The corresponding values for `C[C@H](C(=O)NS(C)(=O)=O)c1ccc(OS(=O)(=O)C(F)(F)F)cc1` are “inactive” and “inactive”.
With `C[C@@H](C(=O)Nc1nncs1)c1ccc(OS(=O)(=O)C(F)(F)F)cc1`, the inhibition at 10 µM is 50% in data set [3]; < 5% in data set [4]; 40% in data set [5]; 70% in data set [6]; 66% in [7]. The inhibition in [1] is 55%; in [2], 54%.
As to `C[C@@H](C(=O)Nc1nc(C(F)(F)F)co1)c1ccc(OS(=O)(=O)C(F)(F)F)cc1`, the inhibition at 10 µM was 87% in [3]; < 5% in data set [4]; 38% in data set [5]; 94% in data set [6]; 82% in [7]. Moreover, the values for the inhibition in [1] and in data set [2] were 50% and 60%, respectively.
Consider `C[C@@H](C(=O)Nc1nccs1)c1ccc(OS(=O)(=O)C(F)(F)F)cc1`, for which the inhibition at 10 µM is 53% in data set [3]; 36% in [4]; 26% in [5]; 87% in [6]; 52% in [7]. The inhibition in data set [1] stood at 55%; in [2], 56%.
Consider `C[C@@H](C(=O)NS(=O)(=O)C1CC1)c1ccc(OS(=O)(=O)C(F)(F)F)cc1`, for which the inhibition is 45% in data set [1] and 44% in data set [2].
Take `C[C@@H](C(=O)Nc1ccccn1)c1ccc(OS(=O)(=O)C(F)(F)F)cc1`: the inhibition at 10 µM in data set [3] was 37%; in data set [4], < 5%; in [5] it was 21%; in data set [6] it was 97%; in data set [7] it was 15%. The inhibition in [1] turned out to be 45%; in data set [2] it was 43%.
On to `C[C@@H](C(=O)Nc1nnc[nH]1)c1ccc(OS(=O)(=O)C(F)(F)F)cc1`, for which the inhibition at 10 µM in data set [3] is < 5%; in data set [4], < 5%; in data set [5] it was < 5%; in data set [6], 21%; in [7], 8%. Further, the inhibition was 45% in [1] and 44% in data set [2].
Turning to `C[C@@H](C(=O)Nc1nnco1)c1ccc(OS(=O)(=O)C(F)(F)F)cc1`, the inhibition came out at 48% in [1] and 44% in [2].
Regarding `CC(C)NC(=O)[C@H](C)c1ccc(OS(=O)(=O)C(F)(F)F)cc1`, the remaining at 0.5 h, 1 µM in data set [8] is 75%. The inhibition was determined as 65% in data set [1] and 58% in data set [2].
For the compound `CC(C)Cc1ccc([C@@H](C)C(=O)NS(C)(=O)=O)cc1` [REPARIXIN], in data set [9], the half-life is 0.75 h. For the same compound, the inhibition in [1] came to 22%; in [2] it was 68%.
Take `C[C@@H](C(N)=O)c1ccc(OS(=O)(=O)C(F)(F)F)cc1`: in data set [8], the remaining at 0.5 h, 1 µM was 80%. In addition, the results for the inhibition in [1] and in data set [2] were 56% and 58%, respectively.
Regarding `C[C@@H](C(=O)N(C)O)c1ccc(OS(=O)(=O)C(F)(F)F)cc1`, the remaining at 1 h, 1 µM in data set [10] was found to be 96%. Also, in [11], the remaining at 2 h is > 98%. For the same compound, the half-life in [12] was < 1 h. Further, in data set [8], the remaining at 0.5 h, 1 µM was 75%. In addition, the inhibition in data set [1] is 49%; in [2], 47%.
In the case of `CONC(=O)[C@H](C)c1ccc(OS(=O)(=O)C(F)(F)F)cc1`, the remaining at 1 h, 1 µM in data set [10] came to 90%. Moreover, the remaining at 2 h in data set [11] is > 98%. Also, the half-life in data set [12] is < 1 h. In addition, the remaining at 0.5 h, 1 µM in data set [8] was 65%. Besides, the inhibition in [1] stood at 46%; in data set [2], 56%.
With `Cc1csc(NC(=O)[C@H](C)c2ccc(OS(=O)(=O)C(F)(F)F)cc2)n1`, the inhibition at 10 µM in [3] was 60%; in data set [4], 16%; in data set [5], < 5%; in [6] it was 90%; in data set [7], 60%. Besides, the figures for the inhibition in data set [1] and in data set [2] were 50% and 58%, respectively.
Regarding `C[C@@H](C(=O)Nc1ncco1)c1ccc(OS(=O)(=O)C(F)(F)F)cc1`, the inhibition at 10 µM is 70% in data set [3]; 15% in [4]; < 5% in data set [5]; 90% in data set [6]; 44% in data set [7]. Further, the inhibition stood at 46% in data set [1] and 47% in data set [2].
With `C[C@@H](C(=O)NO)c1ccc(OS(=O)(=O)C(F)(F)F)cc1`, in data set [10], the remaining at 1 h, 1 µM stood at 85%. The remaining at 2 h in data set [11] is > 98%. The half-life in [12] was < 1 h. In addition, the remaining at 0.5 h, 1 µM in [8] stood at 87%. In addition, the inhibition in [1] is 49%; in [2] it was 50%.
As to `C[C@@H](C(=O)Nc1nc(C(F)(F)F)cs1)c1ccc(OS(=O)(=O)C(F)(F)F)cc1`, the inhibition at 10 µM worked out at 73% in data set [3]; 14% in data set [4]; 56% in data set [5]; 94% in data set [6]; 52% in [7]. Also, the inhibition in data set [1] was found to be 55%; in [2] it was 64%.
On to `CC(C)ONC(=O)[C@H](C)c1ccc(OS(=O)(=O)C(F)(F)F)cc1`, for which, in data set [10], the remaining at 1 h, 1 µM is 85%. For the same compound, the remaining at 0.5 h, 1 µM in data set [8] amounted to 75%. The figures for the inhibition in [1] and in [2] were 38% and 49%, respectively.
As for `C[C@H](C(=O)O)c1ccc(OS(=O)(=O)C(F)(F)F)cc1`, the inhibition result in data set [1] and in [2] was “inactive” in each case.
